From US20200079819A1, “Use of a Vaccine Targeting a Cryptic Tert Epitope, for Treating Lung Cancer in a HLA-A*0201-Positive Never-Smoker or Light-Former Smoker Patient” (Vaxon Biotech, priority 2017, published 2020) come the findings set out here.

This assay has as its system T cells specific for the TERT572 peptide. As to the kind of experiment: Immunomonitoring: IFNg ELISpot assay on PBMC of vaccinated patients. Type of assay: in vivo, human.

No end group written: not given here.

With “Vx-001: vaccine composed of two nine-amino-acid peptides, TERT572 (SEQ ID No: 1) and TERT572Y (SEQ ID No: 2), administered separately with adjuvant Montanide ISA51 VG (chain 1 RLFFYRKSV; chain 2 YLFFYRKSV; not fully specified)”, the “Patients who mounted a TERT572 specific immune response” value by setting is: (Vx-001 treated patients measured at least at W6, W18 or thereafter (22 of 75 patients)) 29.3%; (Vx-001 treated patients with non-squamous (NSQ) NSCLC) 36%; (Vx-001 treated patients with squamous (SQ) NSCLC) 13.3%. Besides, the “Frequency of vaccine-induced immune response” value by setting is: (Vx-001 treated patients with natural immunity) 15%; (Vx-001 treated patients without natural immunity) 36.2%.
